The target of one test is Beta-galactosidase (Escherichia coli, UniProt Q8VNN2). Briefly: Concentration required to inhibit beta-galactosidase enzyme by 50% from Escherichia coli was reported.
The target of test [1] is Beta-galactosidase (Escherichia coli) (UniProt Q8VNN2). Briefly: Compound was evaluated for the percentage inhibition of beta-galactosidase enzyme from Escherichia coli at the concentration of 1 mM.
Test [2] relates to Beta-galactosidase (Canavalia ensiformis). Briefly: Compound was evaluated for the percentage inhibition of beta-galactosidase enzyme from jack bean at the concentration of 1 mM.

Results on one compound are retold here after ChEMBL document CHEMBL1132066, “Synthesis of alpha-C(1-->3)-mannopyranoside of N-acetylgalactosamine, a new beta-galactosidase inhibitor” (Bioorg Med Chem Lett, 1999).

Chain of Beta-galactosidase (Escherichia coli) (Q8VNN2 whole entry, looked up): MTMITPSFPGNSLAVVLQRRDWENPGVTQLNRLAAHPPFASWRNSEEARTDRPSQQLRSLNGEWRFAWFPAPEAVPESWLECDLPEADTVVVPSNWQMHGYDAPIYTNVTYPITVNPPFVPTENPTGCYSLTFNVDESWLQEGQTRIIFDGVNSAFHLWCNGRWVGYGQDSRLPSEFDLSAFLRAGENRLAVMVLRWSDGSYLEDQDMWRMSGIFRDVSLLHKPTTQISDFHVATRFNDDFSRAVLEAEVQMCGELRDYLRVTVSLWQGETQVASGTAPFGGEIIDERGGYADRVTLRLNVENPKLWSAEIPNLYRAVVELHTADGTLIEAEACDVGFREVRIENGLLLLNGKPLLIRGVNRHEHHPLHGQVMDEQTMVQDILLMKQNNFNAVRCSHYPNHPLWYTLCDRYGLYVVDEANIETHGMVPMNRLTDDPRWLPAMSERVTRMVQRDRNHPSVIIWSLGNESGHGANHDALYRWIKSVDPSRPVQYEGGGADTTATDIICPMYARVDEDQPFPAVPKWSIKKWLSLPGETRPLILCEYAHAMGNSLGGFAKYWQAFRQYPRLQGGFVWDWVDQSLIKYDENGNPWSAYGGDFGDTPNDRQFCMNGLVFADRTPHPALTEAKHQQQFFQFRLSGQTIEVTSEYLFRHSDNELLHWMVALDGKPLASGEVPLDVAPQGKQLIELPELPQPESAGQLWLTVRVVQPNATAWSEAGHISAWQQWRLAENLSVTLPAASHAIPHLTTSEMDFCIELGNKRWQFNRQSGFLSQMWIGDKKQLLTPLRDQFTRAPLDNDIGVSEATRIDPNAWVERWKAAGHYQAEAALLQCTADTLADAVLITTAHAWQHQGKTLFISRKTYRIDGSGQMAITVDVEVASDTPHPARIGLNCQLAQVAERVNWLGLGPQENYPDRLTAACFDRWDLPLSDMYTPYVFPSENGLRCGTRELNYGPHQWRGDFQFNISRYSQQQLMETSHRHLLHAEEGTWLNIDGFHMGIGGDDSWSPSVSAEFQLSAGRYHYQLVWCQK
Chain of Beta-galactosidase (Q8VNN2 whole entry): as the sequence (Q8VNN2 whole entry, looked up) above

Regarding `CC(=O)N[C@@H]1C(O)O[C@H](CO)[C@H](O)[C@@H]1C[C@H]1O[C@H](CO)[C@@H](O)[C@H](O)[C@@H]1O.CC(=O)N[C@H]1C(O)O[C@H](C(O)CO)[C@@H]1C[C@H]1O[C@H](CO)[C@@H](O)[C@H](O)[C@@H]1O` (stereo partly drawn), the IC50 at Beta-galactosidase was 500 µM. Also, the inhibition in test [1] is 86%; in test [2] it was 92%.

Usually IC50 stands for the concentration needed to halve the response being measured. A high value points to lower potency. By inhibition is commonly meant the relative decrease from the control value, in per cent.
